A short description of data set [1]: Acute toxicity of SODF, intragastric administration to mice. Particulars: 3000 mg/kg. The data set is classed as in vivo. The procedure:
(§1) Evaluation of SODF acute toxicity and tolerated toxic and lethal doses for single intragastric administration to male and female mice and rats. Evaluation was carried out for 24 male rats weighing 235-260 g and […] female rats weighing 225-250 g as well as for 24 male mice weighing 21-25 g and 24 female mice weighing 20-24 g. All in all, there were 8 groups in each of the four categories. SODF was administered in the largest possible volume 10 ml/kg three times a day at a 40-minute interval. Prior to administration, SODFs were dispersed, then ground in a mortar and mixed with a 0.5% Tween 80 solution to obtain a suspension suitable for intragastric administration to animals at a dose of ≤10 ml/kg. Solutions for administration were always prepared on the day of administration. Prepared SODF suspensions were administered at the same time every day (within a deviation of maximum 4 hours). […] On each of the 14 days following SODF administration, the weights of rats and mice were recorded and the animals were examined to detect any cases of death or abnormal condition. In this way, parameters of acute SODF toxicity were established.

Data set [2] in a line: Acute toxicity of SODF, intragastric administration to rats. Particulars: 3000 mg/kg. It counts as in vivo. Here is the method:
as §1

Data set [3] has as its system AD38 cell line. Briefly: Cytotoxicity in AD38 cells (ATPLite). It counts as cell-based, human. Particulars: 3 days. The procedure:
(§2) Anti-HBV activity of tenofovir of formulas 4f, 4h, 4k, 4m (test compounds) was evaluated in the cell line of human hepatoma AD38 carrying integrated HBV DNA with terminal repeats [Lander S, et. al, Antimicrobial Agents and Chemotherapy, 1997, pp. 1715-1720]. The cell line was made available by Dr. C. Seeger, Fox Chase Cancer Center, Philadelphia, Pa.). Simultaneously, cytotoxicity was evaluated.
The cytotoxicity of test compounds was determined simultaneously on the same AD38 cell line. The cells were cultivated in a 96-well black plate with a transparent bottom (10^4 cells/well) in complete DMEM/F12 medium containing 2 mM of L-glutamine (Thermo Scientific, Cat #11320033), 10% fetal bovine serum (ThermoFisher Scientific, Cat#), and 1% antibiotic-antimycotic solution (ThermoFisher Scientific, Cat#15240096). The AD38 cells were seeded in 96-well plates (7.5×10^3 cells/well in 100 μl of medium). The solutions of test compounds in DMEM were prepared immediately before use. […] The number of living cells was counted using the ATPLite kit (Perkin Elmer, Boston, USA) in compliance with manufacturer's instructions. […] After additional 5-minute incubation on a rocking platform at 600 rev/min, the plates were kept in dark for 10 minutes, and the luminescence was read using TopCount NXT (Packard, Perkin Elmer). […] CC50 values (Table 2) were then determined using XLfit 4 software.
For orientation: In ATP-based viability assays light output follows the ATP content of the culture.

In data set [4] the test system is NL4.3 HIV strain (NL4.3-GFP). Briefly: Anti-HIV activity in SupT1 cells infected with NL4.3-GFP. The data set is classed as cell-based. The note with it: read after 45 hours. Here is the method: (§3) The anti-HIV activity of active ingredients (test compounds) was evaluated using SupT1 cells. The cells were infected with the NL4.3 HIV strain carrying a gene of green fluorescence protein (NL4.3-GFP). The virus preparation was obtained by transfection of 293T cells of proviral DNA. Forty-eight hours after the transfection, the preparation was frozen and stored until use. To enhance the infection efficiency, the suspension of SupT1 cells was precipitated from the infection mixture by centrifugation. Test compounds were added to the cells immediately before virus addition. After a 2-hour incubation, the infection mixture was replaced by fresh culture medium with test compounds. The infection efficiency was evaluated following 45 hours by counting the percent of fluorescing cells against noninfected cell cultures. The cytotoxicity of test compounds was evaluated simultaneously at the same, but not infected, SupT1 cellular line using the XTT reagent. To this end, serial ten-fold dilutions of test compounds were prepared (starting with 10 μM to evaluate viral activity or with 100 μM to evaluate cytotoxicity). […] As a result, the values of activity EC50, cytotoxicity CC50, and selectivity index SI were calculated. The test quality was evaluated using the following controls: signal to background ratio, integrase inhibitor raltegravir (1 μM), and reproducibility of the test. […]

Data set [5] has as its system HBV. Briefly: Anti-HBV activity in AD38 cells (secreted HBV DNA, qPCR). It counts as cell-based. Particulars: 4-day incubation. Here is the method:
as §2
The cells were cultivated in complete DMEM/F12 culture medium containing 2 mM of L-glutamine (Thermo Scientific, Cat #11320033), 10% fetal bovine serum (ThermoFisher Scientific, Cat#), 1% antibiotic-antimycotic solution (ThermoFisher Scientific, Cat#15240096), and 0.3 μg/ml of tetracycline (Sigma, Cat # T7660-5G). The cells were seeded into 96-well Corning Biocoat plates (Corning, Cat # 356407) in 225 μl of complete medium without tetracycline, 20 000 cells per well. The test compounds were dissolved first in DMSO (Sigma cat. D2650), then in DMEM/F12 medium, and 9 dilutions in log 3 steps (225 μl) were added to the cells. The final concentrations of test compounds varied from […] to 1 nM. […]
The technique of real-time quantitative polymerase chain reaction (RT-qPCR) was applied using the CFX96TM Real-Time System instrument (Bio-Rad, Hercules, Calif.) and polymerase AmpliTaq Gold® DNA Polymerase (Applied Biosystems®). […]
The fluorescent signal was read at the end of each cycle. […]

The test system of data set [6] is SupT1 cells. Briefly: Cytotoxicity in non-infected SupT1 cells (XTT reagent). The data set is classed as cell-based. Here is the method:
as §3

Structures are written as SMILES. Bounds are passed on as bounds.

Regarding `CCC(=O)[N-]S(=O)(=O)c1ccc(NC(=O)Cc2ccc(Br)c(Oc3cc(Cl)cc(C#N)c3)c2F)c(Cl)c1.[Na+]` [Compound 1a, elsulfavirine sodium], the body weight gain result in data set [1] and in data set [2] was “did not affect body weight gain” throughout.

In the case of `CC(C)OC(=O)[C@H](C)N[P@](=O)(CO[C@H](C)Cn1cnc2c(N)ncnc21)Oc1ccccc1` [Compound 4f, tenofovir alafenamide hemifumarate], the CC50 in data set [3] is 3000 nM; in data set [6], more than 100 µM. For the same molecule, the EC50 in data set [4] is 43 nM; in data set [5] it was 0.3 to 0.7 nM.

The CC50 is the concentration that lowers cell viability or growth by half. The term EC50 denotes the midpoint of the concentration-response curve. A lower EC50 goes with a more potent agent.

Source of the values: patent publication US20200206248A1, “COMBINED MEDICINAL PREPARATION FOR TREATING VIRAL INFECTIONS” (ALLA CHEM, LLC, priority 2017, published 2020).
